# Measurements as given in patent US20030119903A1, “Use of trimebutine for treating pain” (priority 1999, published 2003).
# Read-outs that look alike come from different tables or passages of the source.
# Experiments:
# [1] = tested on: veratridine-induced glutamate release; experiment: veratridine-induced [3H]-glutamate release from rat spinal cord slices; conditions: for IC50: read-out: IC50, inhibition of veratridine-induced glutamate release
# [2] = tested on: voltage-dependent Kv1.1 and Kv1.2 channels; experiment: two-electrode voltage clamp, potassium currents in Xenopus oocytes; conditions: 10 μM, Kv1.1 and Kv1.2 in Xenopus oocytes
# Procedure: (B) Potassium currents expressed in Xenopus oocytes. Superimposed current traces induced by 400 ms depolarizations at −40 to +20 mV (in 10 mV step from −80 mV).
# Two voltage-dependent K^+ channels are considered: the shaker-related Kv1.1 and Kv1.2 channels.
# The rat voltage-dependent rKv1.1 and rKv1.2 channels are expressed in Xenopus oocytes. […] The transcriptions are done using the Ambion Megascript (Ambion, USA) and the cRNAs are stored in water at 1 mg/ml. cRNAs injection in Xenopus oocytes is done at 2-4 ng/ml. Defolliculated oocytes are kept in ND96 medium supplemented with 0.1 U/ml gentamicin. The currents are recorded 1-6 days after injection.
# A two-electrode voltage clamp amplifier (Geneclamp 500, Axon Instruments) is used to record K^+ currents from Xenopus oocytes. The KCl (3M)-filled electrodes had tip resistance<1 MΩ. The oocytes are continuously superfused with a Ca^2+-free ND96 medium in order to abolish the large Ca^2+-activated Cl^− current present in these cells.
# formalin induced pain = experiment: formalin-induced pain; conditions: for ED50: Rattus norvegicus, sc, read-out: ED50, formalin induced pain (licking time)
# [3] = tested on: sodium currents in DRG neurons; experiment: whole cell patch clamp, sodium currents in DRG neurons; type: cell-based, rat
# [4] = volunteers, tablets of 900 mg trimebutine, oral
# [5] = tested on: sodium currents in GH3 cells; experiment: sodium currents in GH3 cells; type: cell-based, rat; conditions: read-out: IC50, sodium current block (summary statement)
# [6] = tested on: μ-, δ- and κ- opioid receptors; conditions: rat brain, guinea-pig and canine intestinal receptors; no subtype selectivity; cited from earlier work
# [7] = tested on: PGE2-induced hyperalgesia; experiment: PGE2-induced hyperalgesia (Randall and Selitto's test)
# Procedure: Test is carried out with Sprague-Dawley male rats (100-120 grams) on arrival. They are housed 5 per cage and acclimated to the conditions of the animal room for 5 days under a 12/12 day/night cycle and a constant room temperature of 22° C. Food and water are provided ad libidum.
# A solution of PGE2 (1 mg/ml) is prepared as a stock solution in a 10% (v/v) alcohol in apyrogen sterile saline and stored at 4° C. for 4 days.
# A solution of PGE2 (1 μg/ml) is freshly prepared twice daily in sterile saline and 100 μl is injected subplantar into the left paw of rat, twice daily for 4 days. Using this protocol, hyperalgesia is present for at least a week following completion for 4 days of treatment.
# Hyperalgesia is measured by the Randall and Selitto's test (Randall and Setillo,1957) using an analgesimeter (Ugo Basile). The analgesimeter is basically a device which exerts a force that increases at constant rate. The force is applied to the animal's paw which is placed on a small plinth under a cone-shaped pusher. The operator depresses a pedal-switch to start the mechanism with exerts the force. The nociceptive threshold is defined as the force at which the rat withdraws its paw. The threshold is determined before and after treatment.
# % of antinociceptive activity is calculated as follows: [formula]
# [8] = tested on: unilateral peripheral mononeuropathy; experiment: rat mononeuropathy, vocalization threshold to paw pressure; conditions: for duration of the antinociceptive effect: (S)-Nor-TMB s.c., morphine i.v.
# [9] = tested on: streptozocin-induced hyperalgesia; experiment: streptozocin-induced diabetic rats, tail immersion test; type: in vivo, rat; conditions: 30 mg/kg s.c. single dose, 30 min or 60 min before test, 44° C.
# Source text: FIG. 9: Effect of TMB in diabetic rats.
# Streptozocin is a selective pancreatic β-cell toxin, which has been used to induce experimental diabetes in laboratory animals (Tomlinson K. C. et al., 1992,). The resultant loss of endogenous insulin induced by streptozocin mimics the characteristics of type I, or insulin-dependent, diabetes. Streptozocin-induced diabetes has recently been described as a model of chronic pain in rats. It has been reported that streptozocin administration leads to mechanical, thermal, and chemical hyperalgesia as well as mechanical hypersensitivity (Courteix C. et al., 1993; Calcutt N. A. et al., 1996). The most common symptoms of diabetic neuropathy appear to be spontaneous burning pain and mechanical hypersensitivity in the feet or lower limbs.
# Test is carried out with male Sprague Dawley rats (Iffa-Credo) weighing 160-180 grams on arrival. […] Food and water are provided ad libidum.
# Animals are intraperitoneally injected with streptozocin 75 mg/kg. Control animals are given vehicle in the same conditions. Diabetes are confirmed once a week after injection by measurement of tail vein blood glucose levels with Boehriger glycemia test. […]
# The tail of the rat is immersed in a water bath at 44° C. […] Results are expressed as the mean+/−SEM and analysed by a Student's t test after an analysis of variance (Anova one way).
structure (smiles),measurement,setting,value
"CCC(COC(=O)c1cc(OC)c(OC)c(OC)c1)(c1ccccc1)N(C)C.O=C(O)/C=C\C(=O)O (racemic) [trimebutine, 2-dimethylamino-2-phenylbutyl 3,4,5-trimethoxybenzoate hydrogen maleate]",concentration at which inhibition of glutamate release is seen / significant,[1],higher than 60 μM
same,IC50,[1]; Rattus norvegicus,> 100 µM
same,K+ current block,[2],23±6%
same,ED50,formalin induced pain,231 mg/kg
same,blocking rate kon,[3],35-40 10^−3s^−1 μM^−1
same,unblocking rate koff,[3],29 10^−3s^−1
same,time constant of channel block,[3]; 10 μM,2.2 s
same,"τoff, time constant of recovery from block",[3]; n=6,34 ± 4 s
same,IC50,"[3]; read-out: IC50, best fit to Hill function (FIG. 4D legend)",0.69 µM
same,IC50,"[3]; read-out: IC50, sodium current block (dose-response curve, text)",1.05 ± 0.09 µM
same,IC50,"[3]; read-out: IC50, sodium current block (summary statement)",< 1 µM
same,time of maximal plasma concentration,[4],1 h
same,IC50,[5],< 1 µM
same,activity at opioid receptors,[6],weak agonist activity
"CC[C@@](COC(=O)c1cc(OC)c(OC)c(OC)c1)(NC)c1ccccc1 [(R)-Nor-TMB, (R) N-desmethyl trimebutine]",IC50,[1]; Rattus norvegicus,16.3 µM
CC[C@](COC(=O)c1cc(OC)c(OC)c(OC)c1)(c1ccccc1)N(C)C [(R)-Trimebutine],IC50,[1]; Rattus norvegicus,> 100 µM
same,inhibition of PGE2-induced hyperalgesia,[7]; 100 mg/kg s.c.,57%
"CC[C@](COC(=O)c1cc(OC)c(OC)c(OC)c1)(NC)c1ccccc1 [(S)-Nor-TMB, (S)-N-desmethyl trimebutine]",IC50,[1]; Rattus norvegicus,6.3 µM
same,antinociceptive effect compared with morphine 1 mg/kg i.v.,"[8]; 3 and 10 mg/kg s.c., amplitude and duration",superior to that of morphine
same,duration of the antinociceptive effect,[8],more than 90 min
same,dose from which the increase of vocalization pressure threshold is present,[8]; s.c.,≥ 1 mg/kg
same,"antinociceptive effect, contralateral paw","[8]; vocalization threshold, s.c.",only at the highest dose (10 mg/kg)
same,"antinociceptive effect, nerve-injured paw","[8]; vocalization threshold, s.c.",significant at all the three doses tested
same,reaction time of tail withdrawal from hot water,[9],the same as in control (non diabetic) rats
same,inhibition of PGE2-induced hyperalgesia,[7]; 20 mg/kg s.c.,up to 89%
same,ED50,"[7]; Rattus norvegicus, sc, read-out: ED50, PGE2-induced hyperalgesia",7 mg/kg
CC[C@@](COC(=O)c1cc(OC)c(OC)c(OC)c1)(c1ccccc1)N(C)C [(S)-Trimebutine],IC50,[1]; Rattus norvegicus,15.2 µM
"CCC(COC(=O)c1cc(OC)c(OC)c(OC)c1)(NC)c1ccccc1 (stereo not shown) [Nor-TMB, N-desmethyl trimebutine]",IC50,"[1]; veratridine 40 μM, rat spinal cord slices",8.4 µM
same,"ED50, formalin induced pain (licking time)","formalin induced pain; s.c., 30 min before testing",17 mg/kg
same,"inhibition parameters (IC50, nH) compared with trimebutine",[3]; DRG neurons,very similar
CCCCN1CCCCC1C(=O)Nc1c(C)cccc1C (stereo not shown) [bupivacaine],IC50,[1]; Rattus norvegicus,8.2 µM
CN1CC[C@]23c4c5ccc(O)c4O[C@H]2[C@@H](O)C=C[C@H]3[C@H]1C5 [morphine],effect on veratridine-induced glutamate release,[1]; up to 100 μM,inactive
same,ED50,formalin induced pain,0.51 mg/kg
same,duration of the antinociceptive effect,[8],less than 60 min
